Data published in ChEMBL document CHEMBL1201862, “PubChem BioAssay data set” (2004).
Calls of active or inactive are those of the source. Unless noted, the rule behind the calls is not given here.

Experiments:
ORF 73 = ORF 73 (Human herpesvirus 8, UniProt O40947); test: KSHV LANA DNA-binding disruption – biochemical, fluorescence polarization, cherry-picked samples, dose response (AID 504725); design: species or system Human gammaherpesvirus 8;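 also: fluorescence polarization of a labeled DNA duplex reporting LANA DNA binding; potency is for inhibitors that block LANA binding to the DNA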
[1] = molecular target: T1, Replicative DNA helicase DnaB (Mycobacterium tuberculosis, UniProt P9WMR3); test: DnaB Intein secondary assay Measured in Biochemical System Using Plate Reader - 2047-04_Inhibitor_Dose_DryPowder_Activity. [Related pubchem assays (depositor defined):AID2223]
T1 sequence (P9WMR3 whole entry): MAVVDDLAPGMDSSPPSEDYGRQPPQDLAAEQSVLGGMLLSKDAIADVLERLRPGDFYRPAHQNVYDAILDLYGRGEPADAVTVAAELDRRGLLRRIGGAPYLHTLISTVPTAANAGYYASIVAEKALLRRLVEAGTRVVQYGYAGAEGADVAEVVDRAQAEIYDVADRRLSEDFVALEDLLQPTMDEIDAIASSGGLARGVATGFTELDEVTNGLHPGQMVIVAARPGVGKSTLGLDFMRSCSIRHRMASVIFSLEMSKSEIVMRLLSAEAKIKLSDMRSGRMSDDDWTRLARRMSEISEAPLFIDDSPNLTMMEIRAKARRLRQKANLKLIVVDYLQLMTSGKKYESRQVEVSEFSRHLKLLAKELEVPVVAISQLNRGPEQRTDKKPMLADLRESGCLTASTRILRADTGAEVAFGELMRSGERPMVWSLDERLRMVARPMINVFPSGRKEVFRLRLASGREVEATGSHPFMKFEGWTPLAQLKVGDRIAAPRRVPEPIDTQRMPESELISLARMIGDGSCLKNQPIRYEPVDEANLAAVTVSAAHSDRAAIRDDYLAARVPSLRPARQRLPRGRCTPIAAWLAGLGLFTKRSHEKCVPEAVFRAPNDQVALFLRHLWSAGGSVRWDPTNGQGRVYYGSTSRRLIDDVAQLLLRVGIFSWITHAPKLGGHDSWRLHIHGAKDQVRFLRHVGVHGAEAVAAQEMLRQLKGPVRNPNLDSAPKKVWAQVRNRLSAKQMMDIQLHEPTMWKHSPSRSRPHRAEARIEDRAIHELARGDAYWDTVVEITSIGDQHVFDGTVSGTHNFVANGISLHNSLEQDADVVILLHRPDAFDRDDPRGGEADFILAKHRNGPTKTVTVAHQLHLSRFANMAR

Protein RecA = molecular target: T2, Protein RecA (Mycobacterium tuberculosis, UniProt P9WHJ3); test: RecA Intein Measured in Biochemical System Using Plate Reader - 2047-02_Inhibitor_Dose_DryPowder_Activity. [Related pubchem assays (depositor defined):AID2223]; design: species or system Mycobacterium tuberculosis H37Rv
T2 sequence (P9WHJ3 whole entry): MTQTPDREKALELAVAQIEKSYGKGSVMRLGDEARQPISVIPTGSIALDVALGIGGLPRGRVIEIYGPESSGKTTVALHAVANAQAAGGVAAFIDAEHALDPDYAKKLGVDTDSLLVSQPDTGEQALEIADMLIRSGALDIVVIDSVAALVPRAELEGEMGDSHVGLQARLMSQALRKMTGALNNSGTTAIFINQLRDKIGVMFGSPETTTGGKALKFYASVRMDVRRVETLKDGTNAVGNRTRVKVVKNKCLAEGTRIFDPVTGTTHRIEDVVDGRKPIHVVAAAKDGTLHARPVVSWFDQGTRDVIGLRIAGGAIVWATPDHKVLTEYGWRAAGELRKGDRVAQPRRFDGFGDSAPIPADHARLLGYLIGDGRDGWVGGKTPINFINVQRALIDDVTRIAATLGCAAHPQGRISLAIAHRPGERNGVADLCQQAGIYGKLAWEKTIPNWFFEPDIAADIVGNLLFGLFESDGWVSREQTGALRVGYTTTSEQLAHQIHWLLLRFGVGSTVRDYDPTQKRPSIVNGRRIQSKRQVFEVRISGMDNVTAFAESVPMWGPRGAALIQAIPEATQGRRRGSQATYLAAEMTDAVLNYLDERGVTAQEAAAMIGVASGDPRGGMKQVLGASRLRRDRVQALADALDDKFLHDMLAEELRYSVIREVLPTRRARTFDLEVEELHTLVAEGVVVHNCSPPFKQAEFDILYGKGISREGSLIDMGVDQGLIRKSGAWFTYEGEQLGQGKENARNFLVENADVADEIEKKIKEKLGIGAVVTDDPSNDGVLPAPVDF

cells = type: functional, cell-based; conditions: HEK-CNG
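For EC50 in this document: target is galanin receptor GalR3 read with a cAMP biosensor in HEK293 cells.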

ORF 73, sequence (O40947 whole entry): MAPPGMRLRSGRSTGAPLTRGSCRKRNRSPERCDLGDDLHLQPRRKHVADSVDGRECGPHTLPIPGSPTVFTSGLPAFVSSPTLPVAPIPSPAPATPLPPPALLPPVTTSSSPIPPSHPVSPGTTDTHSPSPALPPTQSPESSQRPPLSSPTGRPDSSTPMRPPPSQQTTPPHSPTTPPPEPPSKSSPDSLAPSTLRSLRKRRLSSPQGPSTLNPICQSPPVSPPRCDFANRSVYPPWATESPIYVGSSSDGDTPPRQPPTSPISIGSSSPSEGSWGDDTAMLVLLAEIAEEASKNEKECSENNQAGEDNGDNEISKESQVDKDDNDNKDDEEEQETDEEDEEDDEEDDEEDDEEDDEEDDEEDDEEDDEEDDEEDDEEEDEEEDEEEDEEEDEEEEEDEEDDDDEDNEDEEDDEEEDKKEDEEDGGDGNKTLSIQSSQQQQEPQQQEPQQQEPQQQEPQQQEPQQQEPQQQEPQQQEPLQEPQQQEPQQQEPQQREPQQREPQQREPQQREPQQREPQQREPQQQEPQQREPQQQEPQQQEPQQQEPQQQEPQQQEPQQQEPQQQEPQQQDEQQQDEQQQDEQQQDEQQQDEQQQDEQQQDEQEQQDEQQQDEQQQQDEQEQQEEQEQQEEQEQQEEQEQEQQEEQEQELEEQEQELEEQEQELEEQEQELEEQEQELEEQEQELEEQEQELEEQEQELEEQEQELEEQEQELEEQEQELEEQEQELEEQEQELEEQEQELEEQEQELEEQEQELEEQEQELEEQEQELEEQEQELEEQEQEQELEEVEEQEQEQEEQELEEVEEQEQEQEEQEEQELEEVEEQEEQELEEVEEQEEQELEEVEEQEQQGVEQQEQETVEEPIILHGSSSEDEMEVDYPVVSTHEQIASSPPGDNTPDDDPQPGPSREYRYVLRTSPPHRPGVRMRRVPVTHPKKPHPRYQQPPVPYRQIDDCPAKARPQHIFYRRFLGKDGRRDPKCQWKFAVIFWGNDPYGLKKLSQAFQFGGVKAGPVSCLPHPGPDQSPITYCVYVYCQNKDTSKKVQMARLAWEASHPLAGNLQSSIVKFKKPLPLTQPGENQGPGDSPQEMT

With `COc1ccc(NS(=O)(=O)c2ccc3c(c2)[C@H]2C=CC[C@H]2[C@@H](c2ccc(C(=O)O)cc2)N3)cc1` the AC50 (ORF 73) was 71.9 µM (active).

In the case of `Cn1nc(-c2ccccn2)nc2c(=O)n(C)c(=O)nc1-2`, the AC50 [1] is reported as 0.503 µM (active) and the AC50 (Protein RecA) is reported as 0.047 µM (active).

For `CCCCCCCCCCn1c2c(c(=N)c3c1CCC3)CCC2`, the EC50 (cells) was 15.8 µM (inactive).
